Laboratory results reported in patent US20260217716A1, “ANDROGEN RECEPTOR MODULATORS AND METHODS FOR THEIR USE” (Capulus Therapeutics, LLC, priority 2022, published 2026).
Residue numbers refer to the chain shown, from its start. pIC50: −log10 of the molar value. Read-outs that look alike come from different tables or passages of the source.

Columns and labels:
[1] = target: T1, Human androgen receptors (Homo sapiens, UniProt P10275, T878A); assay: Biochemical AR LBD antagonism (Eurofins AR radioligand binding assay)
T1 construct: Human androgen receptors obtained from human LNCaP cells were used; host or cells: human LNCaP cells
T1 sequence (P10275 1-920 T878A): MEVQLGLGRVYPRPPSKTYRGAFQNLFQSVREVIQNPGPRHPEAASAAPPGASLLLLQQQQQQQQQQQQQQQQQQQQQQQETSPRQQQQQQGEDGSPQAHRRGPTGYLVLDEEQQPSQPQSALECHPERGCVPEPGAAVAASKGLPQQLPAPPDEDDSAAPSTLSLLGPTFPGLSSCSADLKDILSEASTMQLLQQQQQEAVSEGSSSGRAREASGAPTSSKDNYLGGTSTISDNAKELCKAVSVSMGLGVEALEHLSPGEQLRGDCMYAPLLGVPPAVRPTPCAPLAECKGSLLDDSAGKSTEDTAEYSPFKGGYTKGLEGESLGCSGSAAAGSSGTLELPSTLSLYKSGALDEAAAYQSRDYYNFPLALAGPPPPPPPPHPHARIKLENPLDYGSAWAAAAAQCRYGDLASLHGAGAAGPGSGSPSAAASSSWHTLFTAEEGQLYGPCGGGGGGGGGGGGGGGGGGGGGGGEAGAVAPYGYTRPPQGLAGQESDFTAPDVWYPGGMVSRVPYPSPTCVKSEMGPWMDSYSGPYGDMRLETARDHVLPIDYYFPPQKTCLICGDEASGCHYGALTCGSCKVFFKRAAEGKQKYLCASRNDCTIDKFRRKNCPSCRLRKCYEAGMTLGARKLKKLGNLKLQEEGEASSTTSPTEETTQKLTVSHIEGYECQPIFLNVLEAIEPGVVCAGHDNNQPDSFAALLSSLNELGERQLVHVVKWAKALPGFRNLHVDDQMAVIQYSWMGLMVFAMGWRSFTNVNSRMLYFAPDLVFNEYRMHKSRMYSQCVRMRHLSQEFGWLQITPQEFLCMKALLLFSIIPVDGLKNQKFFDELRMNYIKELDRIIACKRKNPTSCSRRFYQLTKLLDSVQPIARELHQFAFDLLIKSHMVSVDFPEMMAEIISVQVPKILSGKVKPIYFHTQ
Procedure: Human androgen receptors obtained from human LNCaP cells were used in modified HEPES buffer pH 7.4. A 70 μg‡ aliquot was incubated with 0.5 nM [3H] Methyltrienolone for 20 h at 4° C. Non-specific binding was estimated in the presence of 1 μM testosterone. Receptors were filtered and washed, the filters were then counted to determine [3H] Methyltrienolone specifically bound. Compounds were screened at 10 μM.
Furthermore, as noted earlier, most clinically relevant AR inhibitors target the ligand binding domain (LBD) of the androgen receptor, and these inhibitors can lose efficacy due to point mutations in the LBD. Given that the AR protein contains multiple sub-domains, targeting other domains is an attractive approach for new inhibitors. […] Therefore, the compounds as described herein may be interacting with other subdomains in the AR protein, namely the N-terminal domain.

[2] = Mouse liver microsome stability; type: in vitro ADME; settings: 1 μM
Procedure: (§1) Preincubation mixture 2.5 μL Test Cpd. +75 μL Liver microsomes (human or mouse source) @ 3.33 mg/mL+85 µL of 100 mM potassium phosphate buffer (preincubate for 10 min @ 37° C.). Incubation mixture 62 μL of cofactor (2.85 mM)+Remaining incubation mixture (Incubated for 60 min @ 37° C.). Sample preparation 25 μL incubation mixture+200 μL of acetonitrile containing internal standard+Vortex 5 min @ 1200 rpm+Centrifuge 10 min @ 4000 rpm. Supernatant diluted 2-fold with water and injected on LC-MS/MS.

[3] = target: T2, human AR (Homo sapiens, UniProt P10275); assay: Indigo Biosciences AR reporter cell assay (AR inhibition, antagonist mode); type: cell-based; settings: for pIC50: luciferase reporter cells, 24 hr, EC80 of agonist 5α-dihydro-11-keto testosterone, read-out: AR Inhibition Indigo Cell Based: Avg IC50
T2 construct: Reporter Cells used in these assays expressed a native receptor (AR)
T2 sequence (P10275 1-920): T1 sequence (P10275 1-920 T878A) with A878T
Procedure: The aim of this study was to evaluate compounds 1-12 and the comparative compounds 1-2 for inhibition activities against human AR. Reporter Cells used in these assays expressed a native receptor (AR). The reporter gene, firefly luciferase, is functionally linked to an upstream receptor-specific genetic response element (GRE). Reporter cells were treated with eight concentrations, starting at 50 μM and following with 3.17-fold dilutions. Single treatment concentration was performed (n=1). Assay performance was validated using the reference antagonist hydroxy flutamide. • Step 1: A suspension of reporter cells was prepared in Cell Recovery Medium (CRM). Reporter cells were first supplemented with 2×-EC80 concentration of the reference agonist, 5α-dihydro-11-keto testosterone, then 100 μl of the Reporter Cell suspension was dispensed into wells of a white 96-well assay plate. • Step 2: Test compound master stocks were diluted in DMSO to generate solutions at ‘500×-concentration’ relative to the final treatment concentration and diluted directly into INDIGO's Compound Screening Medium (CSM; containing charcoal-stripped FBS) to generate ‘2×-concentration’ treatment media. This was diluted into the wells to the final concentration. Assay plates were incubated at 37° C., 5% CO2 and ~70% humidity for 24 hr. • Step 3: Following the incubation period, wells were rinsed once with Live Cell Multiplex (LCM) Buffer, then LCM substrate was added. Following incubation at room temperature for 15 min, LCM substrate was discarded and 100 μL/well of luciferase detection reagent was added. Subsequently, fluorescence was measured to determine the relative number of live cells per assay well. RLU values were quantified after a 10 min incubation period at room temperature to determine nuclear receptor activities.

[4] = Human liver microsome stability; type: in vitro ADME; settings: 1 μM
Procedure: as §1

[5] = Table 4, read-out: Biochemical AR LBD Antagonism: Average IC50
[6] = Table 6, mouse liver microsomes
[7] = Table 6, human liver microsomes
[8] = Table 3, read-out: Biochemical AR LBD Antagonism: Avg IC50
[9] = Table 5, mouse liver microsomes
[10] = Table 5, human liver microsomes

| pIC50 [1, 5] | Mouse LM: Rem @ 60 min [2, 6] | pIC50 ([3]; Table 2) | Human LM: Rem @ 60 min [4, 7] | pIC50 [1, 8] | pIC50 ([3]; Table 1) | Mouse LM: Rem @ 60 min [2, 9] | Human LM: Rem @ 60 min [4, 10] | times more potent than the racemic mixture (Comparative Compound 1) in the cell-based activity assay ([3]; versus Comparative Compound 1) | times more potent than the S isomer (Comparative Compound 2) in the cell-based activity assay ([3]; versus Comparative Compound 2) | SMILES |
| --- | --- | --- | --- | --- | --- | --- | --- | --- | --- | --- |
| < 6.30 | +++ (>60.1: “+++”) | > 7.30 | +++ (>60.1: “+++”) |  |  |  |  |  |  | CC[C@@H](Nc1ccc2nnc(C(F)(F)F)n2n1)c1ccc(F)cc1 [Compound 3, (R)—N-(1-(4-fluorophenyl)propyl)-3-(trifluoromethyl)-[1,2,4]triazolo[4,3-b]pyridazin-6-amine] |
| < 6.30 | +++ (>60.1: “+++”) | 6.30 to 7.29 | +++ (>60.1: “+++”) |  |  |  |  |  |  | Cc1nnc2ccc(N[C@H](C)c3ccc(F)cc3)nn12 [Compound 10, (R)—N-(1-(4-fluorophenyl)ethyl)-3-methyl-[1,2,4]triazolo[4,3-b]pyridazin-6-amine] |
| < 6.30 | +++ (>60.1: “+++”) | 6.30 to 7.29 | +++ (>60.1: “+++”) |  |  |  |  |  |  | C[C@@H](Nc1ccc2nnc(C(F)F)n2n1)c1ccc(F)cc1 [Compound 12] |
| 6.30 to 7.29 | + (0-30: “+”) | 6.30 to 7.29 | +++ (>60.1: “+++”) |  |  |  |  |  |  | C[C@H](c1ccc(F)cc1)N(C)c1ccc2nnc(C(F)(F)F)n2n1 [Compound 5, (R)—N-(1-(4-fluorophenyl)ethyl)-N-methyl-3-(trifluoromethyl)-[1,2,4]triazolo[4,3-b]pyridazin-6-amine] |
| < 6.30 | +++ (>60.1: “+++”) | 6.30 to 7.29 | +++ (>60.1: “+++”) |  |  |  |  |  |  | C[C@@H](Nc1ccc2nnc(C(F)(F)F)n2n1)c1cc(Cl)cc(Cl)c1 [Compound 8, (R)—N-(1-(3,5-dichlorophenyl)ethyl)-3-(trifluoromethyl)-[1,2,4]triazolo[4,3-b]pyridazin-6-amine] |
| 6.30 to 7.29 | + (0-30: “+”) | 6.30 to 7.29 | +++ (>60.1: “+++”) |  |  |  |  |  |  | COc1cc(Cl)cc([C@@H](C)Nc2ccc3nnc(C(F)(F)F)n3n2)c1 [Compound 7, (R)—N-(1-(3-chloro-5-methoxyphenyl)ethyl)-3-(trifluoromethyl)-[1,2,4]triazolo[4,3-b]pyridazin-6-amine] |
| < 6.30 | + (0-30: “+”) | 6.30 to 7.29 | +++ (>60.1: “+++”) |  |  |  |  |  |  | COc1cc([C@@H](C)Nc2ccc3nnc(C(F)(F)F)n3n2)ccc1F [Compound 6, (R)—N-(1-(4-fluoro-3-methoxyphenyl)ethyl)-3-(trifluoromethyl)-[1,2,4]triazolo[4,3-b]pyridazin-6-amine] |
|  |  | < 6.30 |  |  |  |  |  |  |  | C[C@@H](Nc1ccc2nnc(C(F)(F)F)n2n1)c1ccc(C#N)cc1 [Compound 9, (R)-4-(1-((3-(trifluoromethyl)-[1,2,4]triazolo[4,3-b]pyridazin-6-yl)amino)ethyl)benzonitrile] |
|  |  |  |  | < 6.30 | < 6.30 |  |  |  |  | C[C@H](Nc1ccc2nnc(C(F)(F)F)n2n1)c1ccc(F)cc1 [Comparative Compound 2, (S)—N-(1-(4-fluorophenyl)ethyl)-3-(trifluoromethyl)-[1,2,4]triazolo[4,3-b]pyridazin-6-amine, reference compound] |
|  |  |  |  | < 6.30 | 6.30 to 7.29 | +++ (>60.1: “+++”) | +++ (>60.1: “+++”) |  |  | CC(Nc1ccc2nnc(C(F)(F)F)n2n1)c1ccc(F)cc1 (racemic) [Comparative Compound 1, (R, S)—N-(1-(4-fluorophenyl)ethyl)-3-(trifluoromethyl)-[1,2,4]triazolo[4,3-b]pyridazin-6-amine, reference compound] |
| < 6.30 | ++ (30.1-60: “++”) | > 7.30 | +++ (>60.1: “+++”) | < 6.30 | > 7.30 | ++ (30.1-60: “++”) | +++ (>60.1: “+++”) | ~ 2 times | ~ 150 times | C[C@@H](Nc1ccc2nnc(C(F)(F)F)n2n1)c1ccc(F)cc1 [Compound 1, (R)—N-(1-(4-fluorophenyl)ethyl)-3-(trifluoromethyl)-[1,2,4]triazolo[4,3-b]pyridazin-6-amine] |
|  | +++ (>60.1: “+++”) | 6.30 to 7.29 | +++ (>60.1: “+++”) |  |  |  |  |  |  | C[C@@H](Nc1ccc2nnc(C(F)(F)F)n2n1)c1ccc(C(F)(F)F)cc1 [Compound 4, (R)-3-(trifluoromethyl)-N-(1-(4-(trifluoromethyl)phenyl)ethyl)-[1,2,4]triazolo[4,3-b]pyridazin-6-amine] |
|  |  | < 6.30 |  |  |  |  |  |  |  | C[C@@H](Nc1ccc2nnc(C3CC3)n2n1)c1ccc(F)cc1 [Compound 11, (R)-3-cyclopropyl-N-(1-(4-fluorophenyl)ethyl)-[1,2,4]triazolo[4,3-b]pyridazin-6-amine] |
